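Step 1: Grow cells in 96-well plates. Step 2: Expose to compound for 48 hours at 5 concentrations. Step 3: Interpolate endpoints linearly; if unreached, use highest concentration. At the GI50, growth is halved.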 Calls of active or inactive are those of the source. No stated cut-off is given here; in the data, active = GI50 up to about 1.1 µM and inactive = higher.
Tests used:
Test in all cases: DTP human tumour cell line panel, 48 h
[1] = tested on: 786-0
[2] = tested on: A498
[3] = tested on: A549
[4] = tested on: ACHN
[5] = tested on: COLO 205
[6] = tested on: HL-60
[7] = tested on: Hs-578T
[8] = tested on: MDA-MB-231
[9] = tested on: MOLT-4
[10] = tested on: Malme-3M
[11] = tested on: NCI-H226
[12] = tested on: NCI-H522
[13] = tested on: OVCAR-4
[14] = tested on: OVCAR-5
[15] = tested on: SW-620
[16] = tested on: TK-10
[17] = tested on: UACC-257
[18] = tested on: UACC-62
[19] = tested on: UO-31
[20] = tested on: RPMI-8226

Measured: GI50

CN(C)CCn1c(=O)c2ccc3c4c(nn3CCN(C)C)c3ccccc3n(c1=O)c24
inactive: [17] 1.12 µM
active: [1] < 0.121 µM | [2] 0.301 µM | [3] 0.134 µM | [4] < 0.129 µM | [5] 0.201 µM | [6] 0.598 µM | [7] 0.526 µM | [8] 0.637 µM | [9] < 0.01 µM | [10] 0.887 µM | [11] 0.506 µM | [12] < 0.0219 µM | [13] 0.141 µM | [14] 0.485 µM | [15] < 0.138 µM | [16] 0.578 µM | [18] 0.564 µM | [19] 0.271 µM

CC(C)(C)OC(=O)N1CCc2c(n(C/C=C/c3ccccc3)[nH]c2=O)C1
inactive: [1] > 100 µM | [2] > 100 µM | [3] > 100 µM | [4] > 100 µM | [5] > 70.6 µM | [6] 27.8 µM | [7] > 100 µM | [8] > 100 µM | [9] 33.6 µM | [10] > 75.2 µM | [11] > 100 µM | [12] > 51.2 µM | [13] 97.1 µM | [20] 95.5 µM | [15] > 100 µM | [16] > 81.3 µM | [17] > 100 µM | [18] > 100 µM | [19] 61.2 µM

Cc1ccc(CC(=O)Nc2ccc(NC(=O)CNC(=O)/C=C/c3ccc(-c4ccccc4)cc3)cc2C(=O)c2ccccc2)cc1
active: [2] 0.989 µM
inactive: [1] 2.28 µM | [3] 2.03 µM | [4] 4.8 µM | [5] 6.93 µM | [6] 7.45 µM | [7] 4.71 µM | [8] 2.62 µM | [9] 3.5 µM | [10] 2.99 µM | [11] 2.79 µM | [12] 5.13 µM | [14] 4.48 µM | [20] 10.4 µM | [15] 4.75 µM | [16] 2.08 µM | [17] 6.32 µM | [18] 13.1 µM | [19] 11.8 µM

COC(=O)C1(CCC(=O)N(C)c2ccccc2)NNC2C(=O)N(c3ccccc3)C(=O)C21 (stereo not given)
inactive: [1] > 10 µM | [2] > 10 µM | [3] > 10 µM | [4] > 10 µM | [5] > 10 µM | [6] > 10 µM | [7] > 10 µM | [8] > 10 µM | [10] > 10 µM | [11] > 10 µM | [12] > 10 µM | [13] > 10 µM | [14] > 10 µM | [20] > 10 µM | [15] > 10 µM | [16] > 10 µM | [17] > 10 µM | [18] > 10 µM | [19] > 10 µM

COC(=O)c1ccc2n1C1CC3CC(CC2C3)C1
inactive: [1] > 100 µM | [2] > 100 µM | [3] > 100 µM | [4] > 100 µM | [5] > 100 µM | [6] 15.3 µM | [7] 16.2 µM | [8] > 100 µM | [9] 57.5 µM | [10] > 100 µM | [11] > 100 µM | [12] > 100 µM | [13] > 100 µM | [14] > 100 µM | [20] 42.8 µM | [15] > 100 µM | [16] > 100 µM | [17] > 100 µM | [18] 41.2 µM | [19] > 100 µM

COC(=O)Nc1nc2cc(NC(=O)c3ccc(I)cc3)ccc2[nH]1
inactive: [1] > 100 µM | [2] > 100 µM | [3] > 100 µM | [4] > 100 µM | [5] > 100 µM | [6] > 100 µM | [7] 84.1 µM | [8] > 100 µM | [9] > 100 µM | [10] 72.6 µM | [11] > 100 µM | [12] 24.7 µM | [13] > 100 µM | [14] > 100 µM | [20] > 100 µM | [15] > 100 µM | [16] > 100 µM | [17] > 100 µM | [18] > 100 µM | [19] > 100 µM

O=C(CSCC(=O)N/N=C\c1ccc(F)cc1F)N/N=C\c1ccc(F)cc1F
inactive: [1] > 100 µM | [2] > 100 µM | [3] > 100 µM | [4] > 100 µM | [5] > 100 µM | [6] > 100 µM | [7] > 100 µM | [8] > 100 µM | [9] > 100 µM | [10] > 100 µM | [11] > 100 µM | [12] > 100 µM | [13] > 100 µM | [20] > 100 µM | [15] > 100 µM | [16] > 100 µM | [17] > 100 µM | [18] > 100 µM | [19] > 100 µM

COC(=O)c1cnn2c1ccc1ccccc12
inactive: [1] > 100 µM | [2] > 100 µM | [3] > 100 µM | [4] > 100 µM | [5] > 100 µM | [6] 45.9 µM | [7] > 100 µM | [8] > 100 µM | [9] > 100 µM | [10] > 100 µM | [11] > 100 µM | [12] > 100 µM | [14] > 100 µM | [20] > 100 µM | [15] > 100 µM | [16] > 100 µM | [17] > 100 µM | [18] > 100 µM | [19] 47.8 µM

O=C1C2=Cc3ccccc3CCN2c2ccc([N+](=O)[O-])cc21
inactive: [1] > 100 µM | [2] 35.9 µM | [3] 31.3 µM | [4] 43.2 µM | [5] 43.2 µM | [6] 66.5 µM | [7] 64.6 µM | [8] > 100 µM | [9] 45.7 µM | [10] 32.7 µM | [11] 64 µM | [12] 24 µM | [13] > 100 µM | [14] > 100 µM | [20] > 100 µM | [15] > 100 µM | [16] 83 µM | [17] 36.4 µM | [18] 55.5 µM | [19] 24.2 µM

Cc1c(C#N)c2nnn(-c3ccc([N+](=O)[O-])cc3)c(=O)n2c1-c1ccccc1
inactive: [1] 12.2 µM | [2] 5.64 µM | [3] 10.1 µM | [4] 4.95 µM | [5] 10.4 µM | [6] 14.7 µM | [7] 25.5 µM | [8] 17.3 µM | [10] 14.7 µM | [11] 12.6 µM | [12] 3.77 µM | [13] 8.04 µM | [14] 17.1 µM | [20] 3.13 µM | [15] 10.2 µM | [16] 20 µM | [17] 16.9 µM | [18] 6.19 µM | [19] 11.2 µM

C=CCN1C(=O)CS/C1=N\NC(=O)CSc1nc2ccccc2c(=O)n1CC
inactive: [1] > 100 µM | [2] 35 µM | [3] > 100 µM | [4] > 100 µM | [5] > 100 µM | [6] > 100 µM | [7] > 100 µM | [8] > 100 µM | [9] > 100 µM | [10] > 100 µM | [11] > 100 µM | [12] > 100 µM | [13] > 100 µM | [14] 84.1 µM | [20] > 100 µM | [15] > 100 µM | [16] > 100 µM | [17] > 100 µM | [18] 92 µM | [19] 41.9 µM

CC(=O)O[C@H]1C[C@H]2[C@@H]([C@H](OC(C)=O)C[C@@H]3CC4(CC[C@@]32C)OOC2(CCCCC2)OO4)[C@@H]2CC[C@H]([C@H](C)CCC(N)=O)[C@@]12C
active: [9] 0.881 µM | [12] 0.55 µM | [20] 0.726 µM
inactive: [1] 1.81 µM | [2] 6.64 µM | [3] 1.19 µM | [4] 1.63 µM | [5] 1.91 µM | [6] 1.69 µM | [7] 5.47 µM | [8] 1.95 µM | [10] 2.76 µM | [11] 2.46 µM | [13] 1.78 µM | [14] 2.34 µM | [15] 2.42 µM | [16] 2.6 µM | [17] 5.62 µM | [18] 2.7 µM

COc1cc(/C=C2\CC3C4CC[C@H]5C[C@@H](O)CC[C@]5(C)C4CC[C@]3(C)\C2=N\O)cc(OC)c1OC (stereo not given in full)
inactive: [1] 7.96 µM | [2] 11.2 µM | [3] 7 µM | [4] 6.59 µM | [5] 5.94 µM | [6] 3.46 µM | [7] 8.3 µM | [8] 14.3 µM | [9] 5.33 µM | [10] 16.7 µM | [11] 10.8 µM | [12] 13.1 µM | [13] 5.74 µM | [14] 22.1 µM | [20] 4.23 µM | [15] 18.2 µM | [16] 16.8 µM | [17] 10.7 µM | [18] 14.3 µM | [19] 3.44 µM

Oc1cnc2c(O)cccc2c1 [JINEOL]
inactive: [1] 35.5 µM | [2] > 100 µM | [3] 40.7 µM | [4] 27.5 µM | [6] 31.5 µM | [7] > 100 µM | [8] 52 µM | [9] 41.7 µM | [10] 34.8 µM | [11] 24.2 µM | [12] 19.2 µM | [14] 24.9 µM | [20] 38.1 µM | [15] 45.5 µM | [16] 53.1 µM | [17] 56.6 µM | [18] 32.7 µM | [19] 30.8 µM

Source: ChEMBL document CHEMBL1201862, “PubChem BioAssay data set” (2004)
